Data as given in patent publication US8680111B2 (Pfizer Inc., priority 2012, dated 2014).
Like-named read-outs stand apart in the source and are kept apart here.

What was measured:
[1] = molecular target: T1, WT EML4-ALK (NIH-3T3 EML4-ALK wt v1 cells) (Homo sapiens, UniProt Q9UM73); experiment: Cellular phospho-ALK (Tyr1604) ELISA assay for WT EML4-ALK; format: cell-based; conditions: 1 hour, read-out: ELISA assay for WT EML4-ALK (IC50)
T1 construct: expressed in transfected cells; the other entry of the earlier key: EML4 (Q9HC35, Echinoderm microtubule-associated protein-like 4)

[2] = cc_pd bond, tert-amyl alcohol, 120.0 °C
[3] = molecular target: T2, human recombinant wild-type ALK kinase domain (amino acids 1093-1411) (Homo sapiens, UniProt Q9UM73); experiment: Wild-type ALK enzyme assay (microfluidic mobility shift); format: biochemical; conditions: ATP 60 μM, competitive inhibition fit, read-out: WT ALK enzyme assay (Ki)
T2 construct: ALK kinase domain (amino acids 1093-1411); made in house
Method: The reactions were incubated for 1 h at room temperature, stopped by the addition of 0.1 M EDTA, pH 8, and the extent of reactions (˜15-20% conversion with no inhibitor) was determined after electrophoretic separation of the fluorescently labeled peptide substrate and phosphorylated product on an LabChip EZ Reader II (Caliper Life Sciences, Hopkinton, Mass.).

[4] = cc_pd bond, 12-membered ring, Pd(OAc)2/cataCXium A/KOAc, 120.0 °C
[5] = molecular target: T3, human recombinant L1196M ALK kinase domain (amino acids 1093-1411) (Homo sapiens, UniProt Q9UM73, L1196M); experiment: L1196M mutant ALK enzyme assay (microfluidic mobility shift); format: biochemical; conditions: ATP 60 μM, 0.5 nM enzyme, competitive inhibition fit; read-out: L1196M ALK enzyme assay (Ki)
T3 construct: ALK kinase domain (amino acids 1093-1411); made in house

[6] = molecular target: T4, L1196M EML4-ALK (NIH-3T3 EML4-ALK v1 L1196M cells) (Homo sapiens, UniProt Q9UM73, L1196M); experiment: Cellular phospho-ALK (Tyr1604) ELISA assay for L1196M EML4-ALK; format: cell-based; conditions: NIH-3T3 EML4-ALK v1 L1196M cells, 1 hour, phospho-ALK (Tyr1604); read-out: ELISA assay for L1196M EML4-ALK (IC50)
T4 construct: expressed in transfected cells; the other entry of the earlier key: EML4 (Q9HC35, Echinoderm microtubule-associated protein-like 4)
Method: Cellular Phospho-ALK (Tyr1604) ELISA Assay for EML4-ALK:
The cells were maintained at 37° C. in a 5% CO2 incubator in DMEM (Invitrogen, Carlsbad, Calif.) medium supplemented with 1% L-glutamine, 1% penicillin and streptomycin, 1 ug/ml puromycin and 10% new born calf serum (NCS) in T-75 flasks.
Cells were washed with PBS and re-suspended in DMEM medium supplemented with 0.5% NCS and 1% pen/strep and seeded into 96-well plates at density of 20,000 cells/well/100 μl and incubated in the incubator at 37° C. and 5% CO2. After 20 hours of incubation, 100 μl of assay media (DMEM) in presence of designated PF-compounds concentrations or controls (DMSO) were added into plates and incubated for 1 hour in the incubator. Media was then removed and lysis buffer, containing phosphatase inhibitors and phenylmethanesulfonyl fluoride (PMSF), was added to wells and shaken at 4° C. for 30 minutes to generate protein lysates.
A phospho-ALK (Tyr1604) rabbit antibody was coated onto the 96-well microplates. 50 μl of cell lysates were added to the antibody coated plate and incubated at room temperature for 2 hours. Following extensive washing with 0.1% Tween 20 in PBS to remove unbound materials, ALK mouse mAb was added to detect captured phospho-ALK (Tyr1604) and phospho-ALK fusion proteins. Anti-mouse IgG, HRP-linked antibody was then used to recognize the bound detection antibody. Finally, the chemiluminescent reagent was added and incubated for 10 minutes for signal development. The assay plates were read in the Envision plate reader in the luminescent mode. IC50 values were calculated by a concentration-response curve fitting using a four-parameter analytic method.

[7] = cc_pd bond, 12-membered ring, Pd(OAc)2/cataCXium A/KOAc, t-AmOH, 120.0 °C
[8] = cc_pd bond, 12-membered ring, Pd(OAc)2/cataCXium A/KOAc, 120.0 °C; remark: listed apart in the source

IC50 [1] [nM]	Ki [3] [nM]	Ki [5] [nM]	IC50 [6] [nM]	SMILES	ring closure, yield of all isomers ([2]; from C[C@@H](Oc1nc(Br)cnc1N)c1cc(F)cc(F)c1C(=O)N(C)Cc1cc(C#N)n(C)n1, Pd(OAc)2/cataCXium A/KOAc, 50.0 mM, 2.0 h) [%]	ring closure, isolated yield ([4]; t-amyl alcohol, 50.0 mM) [%]	ring closure, conversion ([7]; 17.9 mM) [%]	ring closure, isolated yield ([4]; t-AmOH, 17.9 mM) [%]	ring closure, yield after HPLC ([8]; t-AmOH, 21.0 mM) [%]	ring closure, conversion ([7]; 21.0 mM) [%]	ring closure, yield after HPLC ([8]; from C[C@@H](Oc1nc(Br)cnc1N)c1ccccc1C(=O)N(C)Cc1cc(C#N)n(C)n1, t-amyl alcohol, 48.7 mM) [%]	ring closure, yield of all isomers ([2]; from C[C@@H](Oc1nc(Br)cnc1N)c1ccccc1C(=O)N(C)Cc1cc(C#N)n(C)n1, Pd(OAc)2/cataCXium A, KOAc, 48.7 mM, 3.0 h) [%]
0.92	0.12	0.41	8.77	C[C@H]1Oc2nc(cnc2N)-c2c(nn(C)c2C#N)CN(C)C(=O)c2c(F)cc(F)cc21 [Example 101, (10R)-7-amino-12,14-difluoro-2,10,16-trimethyl-15-oxo-10,15,16,17-tetrahydro-2H-8,4-(azeno)pyrazolo[4,3-h][2,5,11]benzoxadiazacyclotetradecine-3-carbonitrile]	53	53	–	–	–	–	–	–
146	3.1	24.2	1480	C[C@H]1Oc2cc(cnc2N)-c2c(noc2C#N)CN(C)C(=O)c2ccc(F)cc21 [Example 100, (10R)-7-amino-12-fluoro-10,16-dimethyl-15-oxo-10,15,16,17-tetrahydro-8,4-(metheno)[1,2]oxazolo[4,3-h][2,5,11]benzoxadiazacyclotetradecine-3-carbonitrile]	–	–	30	15	–	–	–	–
52.4	3.2	11.7	531	C[C@H]1Oc2nc(cnc2N)-c2c(noc2C#N)CN(C)C(=O)c2ccc(F)cc21 [Example 99, (10R)-7-amino-12-fluoro-10,16-dimethyl-15-oxo-10,15,16,17-tetrahydro-8,4-(azeno)[1,2]oxazolo[4,3-h][2,5,11]benzoxadiazacyclotetradecine-3-carbonitrile]	–	–	–	–	9	30	–	–
6.52	< 0.16	0.96	78.5	C[C@H]1Oc2nc(cnc2N)-c2c(nn(C)c2C#N)CN(C)C(=O)c2ccccc21 [Example 70, (10R)-7-amino-2,10,16-trimethyl-15-oxo-10,15,16,17-tetrahydro-2H-8,4-(azeno)pyrazolo[4,3-h][2,5,11]benzoxadiazacyclotetradecine-3-carbonitrile]	–	–	–	–	–	–	32	32
